Literature values as cited in patent publication US9370574B2, “Composite absorbable/biodegradable rings for controlled drug delivery” (Poly-Med, Inc., priority 2003, dated 2016).

Assays:
[1] = test system: cervical intraepithelial neoplasia (CIN); conditions: collagen sponge in cervical cap
[2] = test system: post-irradiation vaginal carcinoma in-situ; conditions: 20% 5-FU over monthly 5-day courses
[3] = test system: Human Papillomavirus (HPV)-associated lesions of the vulva and vagina; conditions: biweekly doses of 5% cream for six months following ablative treatment
[4] = test system: bacterial vaginosis
[5] = test system: bacterial vaginosis; conditions: 5 gm gel (0.75%) twice-daily for 5 days

Structure (SMILES): CC1=C(/C=C/C(C)=C/C=C/C(C)=C/C(=O)O)C(C)(C)CCC1 [RA, all-trans-retinoic acid]
- complete histologic regression of CIN II ([1]; locally applied daily for 4 days): 43%
- treatment effect in severe dysplasia (CIN III) ([1]; locally applied): No treatment effect

Structure (SMILES): O=c1[nH]cc(F)c(=O)[nH]1 [Type 5-FU, 5-flurouracil]
- initial complete response [2]: seven of the eight
- recurrences [3]: 13%

Structure (SMILES): Cc1ncc([N+](=O)[O-])n1CCO [metronidazole]
- failure rate after one month, high dose ([4]; high dose sponge (one gram once-daily for three days)): 12%
- cure rate ([4]; intravaginal sponges, 250 mg twice-daily two days or one gram once-daily three days, after one week): 85%
- failure rate after one month, low dose ([4]; low dose sponge (250 mg twice-daily for two days)): 42%
- clinical cure rate ([5]; after 9 to 21 days): 87%
- recurrence rate ([5]; after one month): 15%
